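How tested: cells in 96-well plates exposed to compound for 48 hours at five concentrations. Here, GI50 denotes the concentration required for 50% inhibition of growth.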 Calls of active or inactive are those of the source. Cut-off read from the data, not from the text of the source: active = GI50 up to about 1.1 µM and inactive = higher.
What was measured:
Experiment in all cases: DTP human tumour cell line panel, 48 h
RPMI-8226 = tested on: RPMI-8226
SNB-75 = tested on: SNB-75
HL-60 = tested on: HL-60
SW-620 = tested on: SW-620
OVCAR-8 = tested on: OVCAR-8
SK-MEL-28 = tested on: SK-MEL-28
HOP-92 = tested on: HOP-92
MOLT-4 = tested on: MOLT-4
U-251 = tested on: U-251
UACC-62 = tested on: UACC-62
TK-10 = tested on: TK-10
UO-31 = tested on: UO-31
SK-OV-3 = tested on: SK-OV-3
K562 = tested on: K562
A498 = tested on: A498
SK-MEL-5 = tested on: SK-MEL-5
HOP-62 = tested on: HOP-62
HCT-15 = tested on: HCT-15
OVCAR-4 = tested on: OVCAR-4
M14 = tested on: M14

SMILES	GI50 (RPMI-8226)	GI50 (SNB-75)	GI50 (HL-60)	GI50 (SW-620)	GI50 (OVCAR-8)	GI50 (SK-MEL-28)	GI50 (HOP-92)	GI50 (MOLT-4)	GI50 (U-251)	GI50 (UACC-62)	GI50 (TK-10)	GI50 (UO-31)	GI50 (SK-OV-3)	GI50 (K562)	GI50 (A498)	GI50 (SK-MEL-5)	GI50 (HOP-62)	GI50 (HCT-15)	GI50 (OVCAR-4)	GI50 (M14)
C=CCN1C(N)=C(C(N)=O)S/C1=C1/SC(=S)N(c2ccc(C)cc2)C1=O	> 100 µM (inactive)	12.6 µM (inactive)	> 100 µM (inactive)	> 100 µM (inactive)	> 100 µM (inactive)	> 100 µM (inactive)	> 100 µM (inactive)	> 100 µM (inactive)	> 100 µM (inactive)	> 100 µM (inactive)	> 100 µM (inactive)	> 100 µM (inactive)	> 100 µM (inactive)	> 100 µM (inactive)	3.65 µM (inactive)	> 100 µM (inactive)				
O=C1C=C[C@@H](COC2OC(CO)C(O)C(O)C2O)O1 (stereo not given in full)	3.16 µM (inactive)	14.9 µM (inactive)	1.72 µM (inactive)	3.78 µM (inactive)	14.2 µM (inactive)	> 100 µM (inactive)	20.5 µM (inactive)	4.39 µM (inactive)	15.7 µM (inactive)	10.2 µM (inactive)		50.2 µM (inactive)	73.6 µM (inactive)	3.42 µM (inactive)	16.1 µM (inactive)	17.8 µM (inactive)	56.2 µM (inactive)	3.69 µM	19 µM (inactive)	
COc1cc(Nc2c3ccccc3nc3ccccc23)ccc1NS(C)(=O)=O	2.83 µM (inactive)	7.46 µM (inactive)	4.79 µM (inactive)	2.61 µM (inactive)	4.5 µM (inactive)	7.52 µM (inactive)		40.7 µM (inactive)	4.59 µM (inactive)	6.61 µM (inactive)		4.41 µM (inactive)	14.7 µM (inactive)	34.4 µM (inactive)	6.31 µM (inactive)	6.53 µM (inactive)	7.6 µM (inactive)		3.61 µM (inactive)	3.14 µM (inactive)
CCCSc1ccc2[nH]c(N3C(=O)/C(=C/c4cc(OC)c(OC)c(OC)c4)N=C3c3ccccc3)cc2c1	9.18 µM (inactive)	10.8 µM (inactive)	5.66 µM (inactive)	10.9 µM (inactive)	12.6 µM (inactive)	12.9 µM (inactive)	13.9 µM (inactive)	10.9 µM (inactive)	17.8 µM (inactive)	8.61 µM (inactive)	17 µM (inactive)	15.1 µM (inactive)	1.6 µM (inactive)	8.43 µM (inactive)	0.871 µM (active)	7.53 µM (inactive)	1.39 µM (inactive)	12.2 µM	14.5 µM (inactive)	10.4 µM (inactive)
COc1ccc(CNc2nc3cc(C(F)(F)F)ccc3nc2C)cc1OC	27.1 µM (inactive)	18.5 µM (inactive)	19.9 µM (inactive)	37.9 µM (inactive)	30.3 µM (inactive)	44.1 µM (inactive)		17.3 µM (inactive)	37 µM (inactive)	31.6 µM (inactive)	24.3 µM (inactive)	24 µM (inactive)	36.7 µM (inactive)	29.1 µM (inactive)	24.3 µM (inactive)	17.3 µM (inactive)	20.8 µM (inactive)	34.8 µM	12 µM (inactive)	20.3 µM (inactive)
Cc1c(C#N)c2nnn(C)c(=O)n2c1-c1ccccc1	84.9 µM (inactive)	23.6 µM (inactive)	30.8 µM (inactive)	> 100 µM (inactive)	48.2 µM (inactive)	> 100 µM (inactive)	> 100 µM (inactive)		> 100 µM (inactive)	> 100 µM (inactive)	> 100 µM (inactive)	95.5 µM (inactive)	> 100 µM (inactive)		98.6 µM (inactive)		> 100 µM (inactive)	> 100 µM	> 100 µM (inactive)	> 100 µM (inactive)
Cn1cc(C(=O)/C(Cl)=C(\Cl)C(=O)O)c2ccccc21	> 100 µM (inactive)	> 100 µM (inactive)	> 100 µM (inactive)	> 100 µM (inactive)	> 100 µM (inactive)	> 100 µM (inactive)		> 100 µM (inactive)	> 100 µM (inactive)	> 100 µM (inactive)	> 100 µM (inactive)	> 100 µM (inactive)	> 100 µM (inactive)	> 100 µM (inactive)	> 100 µM (inactive)	> 100 µM (inactive)	> 100 µM (inactive)	> 100 µM	> 100 µM (inactive)	> 100 µM (inactive)
CC(C)OP(=O)(OC(C)C)/C(=N/Nc1ccc([N+](=O)[O-])cc1)NCCO	> 100 µM (inactive)	> 100 µM (inactive)	42.7 µM (inactive)	> 100 µM (inactive)	> 100 µM (inactive)	> 100 µM (inactive)	64.1 µM (inactive)	48.9 µM (inactive)	> 100 µM (inactive)	26.2 µM (inactive)	> 100 µM (inactive)	> 100 µM (inactive)		71.8 µM (inactive)	3.15 µM (inactive)	> 100 µM (inactive)	> 100 µM (inactive)	72.8 µM	> 100 µM (inactive)	> 100 µM (inactive)
COc1cccc(N/C(C)=C2/CCOC2=O)c1	> 10 µM (inactive)	> 10 µM (inactive)	> 10 µM (inactive)	> 10 µM (inactive)	> 10 µM (inactive)	> 10 µM (inactive)		> 10 µM (inactive)	> 10 µM (inactive)	> 10 µM (inactive)	> 10 µM (inactive)	8.15 µM (inactive)	> 10 µM (inactive)		> 10 µM (inactive)	> 10 µM (inactive)	> 10 µM (inactive)	5.08 µM	> 10 µM (inactive)	> 10 µM (inactive)
O=C(CCl)NC(Cc1ccc(F)cc1)C(=O)O (stereo not given)	> 100 µM (inactive)	> 100 µM (inactive)	> 100 µM (inactive)	> 100 µM (inactive)	> 100 µM (inactive)	> 100 µM (inactive)	> 100 µM (inactive)	> 100 µM (inactive)	> 100 µM (inactive)	> 100 µM (inactive)		> 100 µM (inactive)	> 100 µM (inactive)	> 100 µM (inactive)	> 100 µM (inactive)	> 100 µM (inactive)	> 100 µM (inactive)	> 100 µM	> 100 µM (inactive)	
Cc1sc(Cc2ccccc2)nc1-c1ccc(N)cc1	16.3 µM (inactive)		26.2 µM (inactive)	23.7 µM (inactive)	31 µM (inactive)	30.9 µM (inactive)	13.8 µM (inactive)	13.8 µM (inactive)	26.6 µM (inactive)	15.1 µM (inactive)	47.5 µM (inactive)	38.9 µM (inactive)		20.7 µM (inactive)	29.4 µM (inactive)	18 µM (inactive)		19.8 µM	12.7 µM (inactive)	20.6 µM (inactive)
CC(C)(C)CI		26.4 µM (inactive)	22.9 µM (inactive)	18.1 µM (inactive)	> 10 µM (inactive)	50.6 µM (inactive)	26.2 µM (inactive)	37.2 µM (inactive)	26.2 µM (inactive)	29.9 µM (inactive)	> 100 µM (inactive)	> 10 µM (inactive)	48.4 µM (inactive)	21.6 µM (inactive)	41.6 µM (inactive)	16.9 µM (inactive)		33 µM		25 µM (inactive)
COc1cc(Nc2nc3cc(C(F)(F)F)ccc3n3cccc23)cc(OC)c1OC	> 100 µM (inactive)	> 100 µM (inactive)	0.762 µM (active)	> 100 µM (inactive)	> 100 µM (inactive)	> 100 µM (inactive)	> 100 µM (inactive)	8.49 µM (inactive)	> 100 µM (inactive)	> 100 µM (inactive)	> 100 µM (inactive)	> 100 µM (inactive)	> 100 µM (inactive)	> 100 µM (inactive)	> 100 µM (inactive)	26.7 µM (inactive)	> 100 µM (inactive)	> 100 µM		17.8 µM (inactive)
Cc1c2ccnc(C(F)(F)F)c2cc2c1[nH]c1ccccc12	85.1 µM (inactive)	64 µM (inactive)	> 125 µM (inactive)	> 125 µM (inactive)	110 µM (inactive)	> 125 µM (inactive)	8.63 µM (inactive)	85.1 µM (inactive)	> 125 µM (inactive)	> 125 µM (inactive)		> 125 µM (inactive)	36.3 µM (inactive)	> 125 µM (inactive)	11.4 µM (inactive)	> 125 µM (inactive)	73.3 µM (inactive)	> 125 µM	> 125 µM (inactive)	
O=S1(=O)CS(=O)(=O)OCCCO1	> 100 µM (inactive)	51.8 µM (inactive)	59 µM (inactive)	> 100 µM (inactive)	> 100 µM (inactive)	> 100 µM (inactive)	> 100 µM (inactive)	51.3 µM (inactive)	> 100 µM (inactive)	> 100 µM (inactive)	> 100 µM (inactive)	> 100 µM (inactive)	> 100 µM (inactive)	> 100 µM (inactive)	> 100 µM (inactive)	> 100 µM (inactive)	> 100 µM (inactive)	> 100 µM	> 100 µM (inactive)	> 100 µM (inactive)
CC1(C)CCCC2(C)[C@@H]1CC[C@]13C[C@](C)(CC[C@@H]21)[C@@H]3CO (stereo not given in full)	> 100 µM (inactive)	46.7 µM (inactive)	> 100 µM (inactive)	> 100 µM (inactive)		> 100 µM (inactive)	> 100 µM (inactive)	> 100 µM (inactive)	> 100 µM (inactive)	> 100 µM (inactive)	> 100 µM (inactive)	> 100 µM (inactive)	> 100 µM (inactive)	> 100 µM (inactive)		> 100 µM (inactive)	> 100 µM (inactive)	> 100 µM	> 100 µM (inactive)	> 100 µM (inactive)
